From patent US9399638B2, “Substituted pyridine compounds as CRAC modulators” (LUPIN LIMITED, priority 2012, dated 2016)

Test system: IL-2 secretion by Jurkat T cells
Assay: Inhibition of IL-2 secretion
Format: cell-based
Settings: Homo sapiens; Jurkat T cells stimulated with PHA, 20 to 24 hours, IL-2 by ELISA
Experimental: The CRAC channel modulatory activity of the compounds were thus evaluated by measuring the secretion of IL-2 by antigen stimulated T-cells in vitro. Alternatively, such activity can also be evaluated by assay methods known to one skilled in the art.
Inhibition of IL-2 secretion: Jurkat T cells were seeded at a density of 0.5 to 1 million cells per well in RPMI medium. Test compounds from this invention were added to the cells at different concentrations. This was followed by the addition of PHA, a T cell mitogen after 10 minutes. The cells were then incubated for 20 to 24 hours in a CO2 incubator at 37° C. After incubation with the compounds, cells were centrifuged, the supernatant was collected and processed for ELISA to quantitate the amount of IL-2 secreted. A commercial ELISA kit (R&D Systems, Inc. Minneapolis, Minn., USA) was used to estimate the IL-2 concentrations. Amount of IL-2 secreted by cells stimulated with PHA was considered as a 100% maximal signal and the decrease in amount of IL-2 secreted by cells treated with the test compounds was expressed as percent inhibition of the maximal signal. The dose response data was analyzed using 4-parametric sigmoidal dose response (variable slope) curve—fit.

| IC50 [µM] | SMILES |
| --- | --- |
| < 0.1 | Cc1cc(NC(=O)c2c(F)cccc2F)ccc1-c1cncc(-c2nn(C)c(=O)o2)c1 [Example 15, 2,6-Difluoro-N-(3-methyl-4-(5-(4-methyl-5-oxo-4,5-dihydro-1,3,4-oxadiazol-2-yl)pyridin-3-yl)phenyl)benzamide] |
| > 1 | CCc1cc(-c2nn(C)c(=O)o2)cnc1-c1ccc(NC(=O)c2c(F)cccc2F)cc1 [Example 65, N-(4-(3-Ethyl-5-(4-methyl-5-oxo-4,5-dihydro-1,3,4-oxadiazol-2-yl)pyridin-2-yl)phenyl)-2,6-difluorobenzamide] |
| > 1 | Cc1cc(-c2nn(C)c(=O)o2)cc(-c2ccc(NC(=O)c3c(F)cccc3F)cc2)n1 [Example 23, 2,6-Difluoro-N-(4-(6-methyl-4-(4-methyl-5-oxo-4,5-dihydro-1,3,4-oxadiazol-2-yl)pyridin-2-yl)phenyl)benzamide] |
| 0.1 to 1 | Cn1nc(-c2cnc(C3CC3)c(-c3cnc(NC(=O)c4c(F)cccc4Cl)cn3)c2)oc1=O [Example 34, 2-Chloro-N-(5-(2-cyclopropyl-5-(4-methyl-5-oxo-4,5-dihydro-1,3,4-oxadiazol-2-yl)pyridin-3-yl)pyrazin-2-yl)-6-fluorobenzamide] |
| < 0.1 | Cn1nc(-c2cnc(C(F)(F)F)c(-c3cnc(NC(=O)c4c(F)cccc4F)cn3)c2)oc1=O [Example 37, 2,6-Difluoro-N-(5-(5-(4-methyl-5-oxo-4,5-dihydro-1,3,4-oxadiazol-2-yl)-2-(trifluoromethyl)pyridine-3-yl)pyrazin-2-yl)benzamide] |
| < 0.1 | CNc1ncc(-c2nn(C)c(=O)o2)cc1-c1ccc(NC(=O)c2c(F)cccc2Cl)cc1 [Example 11, 2-Chloro-6-fluoro-N-(4-(5-(4-methyl-5-oxo-4,5-dihydro-1,3,4-oxadiazol-2-yl)-2-(methylamino)pyridin-3-yl)phenyl)benzamide] |
| > 1 | CCc1ncc(-c2nn(C)c(=O)o2)cc1-c1ccc(NC(=O)c2c(C)noc2C)cc1 [Example 50, N-(4-(2-Ethyl-5-(4-methyl-5-oxo-4,5-dihydro-1,3,4-oxadiazol-2-yl)pyridin-3-yl)phenyl)-3,5-dimethylisoxazole-4-carboxamide] |
| < 0.1 | CCc1ncc(-c2nn(C)c(=O)o2)cc1-c1ccc(NC(=O)c2c(F)cccc2F)nc1 [Example 30, N-(2′-ethyl-5′-(4-methyl-5-oxo-4,5-dihydro-1,3,4-oxadiazol-2-yl)-[3,3′-bipyridin]-6-yl)-2,6-difluorobenzamide] |
| 0.1 to 1 | CCc1c(-c2ccc(NC(=O)c3c(F)cccc3F)cc2)cncc1-c1nn(C)c(=O)o1 [Example 16, N-(4-(4-Ethyl-5-(4-methyl-5-oxo-4,5-dihydro-1,3,4-oxadiazol-2-yl)pyridin-3-yl)phenyl)-2,6-difluorobenzamide] |
| 0.1 to 1 | Cc1cc(NC(=O)c2c(F)cccc2F)ccc1-c1cc(-c2nn(C)c(=O)o2)cnc1C(F)(F)F [Example 8, 2,6-difluoro-N-(3-methyl-4-(5-(4-methyl-5-oxo-4,5-dihydro-1,3,4-oxadiazol-2-yl)-2-(trifluoromethyl)pyridin-3-yl)phenyl)benzamide] |
| 0.1 to 1 | Cn1nc(-c2cnc(C3CC3)c(-c3ccc(C(=O)Nc4c(F)cccc4F)cc3)c2)oc1=O [Example 5, 4-(2-cyclopropyl-5-(4-methyl-5-oxo-4,5-dihydro-1,3,4-oxadiazol-2-yl)pyridin-3-yl)-N-(2,6-difluorophenyl)benzamide] |
| > 1 | CCc1c(-c2ccc(C(=O)Nc3c(F)cccc3F)cc2)cncc1-c1nn(C)c(=O)o1 [Example 17, N-(2,6-Difluorophenyl)-4-(4-ethyl-5-(4-methyl-5-oxo-4,5-dihydro-1,3,4-oxadiazol-2-yl)pyridin-3-yl)benzamide] |
| > 1 | CCc1c(-c2nn(C)c(=O)o2)ccnc1-c1ccc(NC(=O)c2c(F)cccc2F)cc1 [Example 18, N-(4-(3-Ethyl-4-(4-methyl-5-oxo-4,5-dihydro-1,3,4-oxadiazol-2-yl)pyridin-2-yl)phenyl)-2,6-difluorobenzamide] |
| > 1 | CCOc1cc(-c2ccc(NC(=O)c3c(F)cccc3F)cc2)nc(-c2nn(C)c(=O)o2)c1 [Example 25, N-(4-(4-Ethoxy-6-(4-methyl-5-oxo-4,5-dihydro-1,3,4-oxadiazol-2-yl)pyridin-2-yl)phenyl)-2,6-difluorobenzamide] |
| > 1 | CCc1c(-c2nn(C)c(=O)o2)ccnc1-c1ccc(C(=O)Nc2c(F)cccc2F)cc1 [Example 19, N-(2,6-Difluorophenyl)-4-(3-ethyl-4-(4-methyl-5-oxo-4,5-dihydro-1,3,4-oxadiazol-2-yl)pyridin-2-yl)benzamide] |
| > 1 | CCc1ncc(-c2nn(C)c(=O)o2)cc1-c1ccc(C(=O)Nc2c(F)cccc2F)o1 [Example 44, N-(2,6-Difluorophenyl)-5-(2-ethyl-5-(4-methyl-5-oxo-4,5-dihydro-1,3,4-oxadiazol-2-yl)pyridin-3-yl)furan-2-carboxamide] |
| 0.1 to 1 | CCc1ncc(-c2nn(C)c(=O)o2)cc1-c1cnc(NC(=O)c2c(F)cccc2F)cn1 [Example 53, 2,6-Difluoro-N-(5-(2-ethyl-5-(4-methyl-5-oxo-4,5-dihydro-1,3,4-oxadiazol-2-yl)pyridin-3-yl)pyrazin-2-yl)benzamide] |
| 0.1 to 1 | Cc1nnsc1C(=O)Nc1ccc(-c2cc(-c3nn(C)c(=O)o3)cnc2C2CC2)cc1 [Example 28, N-(4-(2-Cyclopropyl-5-(4-methyl-5-oxo-4,5-dihydro-1,3,4-oxadiazol-2-yl)pyridin-3-yl)phenyl)-4-methyl-1,2,3-thiadiazole-5-carboxamide] |
| 0.1 to 1 | Cc1cc(-c2nn(C)c(=O)o2)ncc1-c1ccc(NC(=O)c2c(F)cccc2F)cc1 [Example 27, 2,6-Difluoro-N-(4-(4-methyl-6-(4-methyl-5-oxo-4,5-dihydro-1,3,4-oxadiazol-2-yl)pyridin-3-yl)phenyl)benzamide] |
| 0.1 to 1 | Cc1ncc(-c2nn(C)c(=O)o2)cc1-c1cnc(NC(=O)c2c(F)cccc2F)cn1 [Example 55, 2,6-Difluoro-N-(5-(2-methyl-5-(4-methyl-5-oxo-4,5-dihydro-1,3,4-oxadiazol-2-yl)pyridin-3-yl)pyrazin-2-yl)benzamide] |
| < 0.1 | CCc1ncc(-c2nn(C)c(=O)o2)cc1-c1ccc(NC(=O)c2c(F)cccc2F)cc1C [Example 29, N-(4-(2-Ethyl-5-(4-methyl-5-oxo-4,5-dihydro-1,3,4-oxadiazol-2-yl)pyridin-3-yl)-3-methylphenyl)-2,6-difluorobenzamide] |
| < 0.1 | Cc1cnccc1NC(=O)c1ccc(-c2cc(-c3nn(C)c(=O)o3)cnc2C2CC2)s1 [Example 43, 5-(2-Cyclopropyl-5-(4-methyl-5-oxo-4,5-dihydro-1,3,4-oxadiazol-2-yl)pyridin-3-yl)-N-(3-methylpyridin-4-yl)thiophene-2-carboxamide] |
| 0.1 to 1 | CCc1ncc(-c2nn(C)c(=O)o2)cc1-c1ccc(NC(=O)c2snnc2C)cc1 [Example 49, N-(4-(2-Ethyl-5-(4-methyl-5-oxo-4,5-dihydro-1,3,4-oxadiazol-2-yl)pyridin-3-yl)phenyl)-4-methyl-1,2,3-thiadiazole-5-carboxamide] |
| 0.1 to 1 | Cn1nc(-c2cnc(C(F)(F)F)c(-c3ccc(NC(=O)c4c(F)cccc4F)cn3)c2)oc1=O [Example 39, 2,6-Difluoro-N-(5′-(4-methyl-5-oxo-4,5-dihydro-1,3,4-oxadiazol-2-yl)-2′-(trifluoromethyl)-[2,3′-bipyridin]-5-yl)benzamide] |

| SMILES | IC50 [µM] |
| --- | --- |
| Cn1nc(-c2cnc(C(F)(F)F)c(-c3ccc(NC(=O)c4c(F)cccc4Cl)cc3)c2)oc1=O [Example 9, 2-Chloro-6-fluoro-N-(4-(5-(4-methyl-5-oxo-4,5-dihydro-1,3,4-oxadiazol-2-yl)-2-(trifluoromethyl)pyridin-n-3-yl)phenyl)benzamide] | 0.1 to 1 |
